These results are taken from US20030119813A1, “Derivatives of pyrimido[6,1-a]isoquinolin-4-one” (priority 2001, published 2003).

Data set [1] deals with guinea-pig tracheal rings. Briefly: Organ bath experiments, guinea-pig tracheal rings, electrical field stimulation. As to conditions: final concentration 10 μM, n=1. How it is done: Guinea-pig tracheal rings were suspended in organ baths under 1 g tension between two electrodes and subjected to electrical field stimulation (3 Hz, 0.1 ms duration and 20V (approx 400 mAmps) generated every 100 sec by means of physiological square wave-stimulator. The compounds of Examples 1, 2 and 8 were dissolved in DMSO containing Tween 80 (10%) and distilled water (0.01M), which were then added to the organ bath to give a final concentration of 10 μM.

The subject of data set [2] is human mononuclear cells stimulated by PHA. Briefly: Proliferation of human mononuclear cells stimulated by PHA ([3H]-thymidine). The note with it: PHA 2 μg/ml, n=6, read-out: IC50 against proliferation of human mononuclear cells stimulated with PHA. In kind it is cell-based. The procedure:
Normal healthy volunteers underwent phlebotomy and 25 ml of blood was collected. Mononuclear cells were separated and purified according to the method of Banner et al. (Banner et al. Br. J. Pharmacol. 116 3169-3174 (1995)). Human peripheral mononuclear cells (100,000 per well) were stimulated for 24 h with phytohaemagglutinin (PHA, 2 μg/ml) in the absence or presence of the compounds of Examples 1, 2 and 8 (0.001-100 μM) at 37° C. in a 95% air, 5% CO2 atmosphere. Twenty four hours later, [^3H]-thymidine (0.1 μCi) was added to each well and the cells were incubated for a further 24 h period. Cells were then harvested onto glass fibre filters using a cell harvester (ICN Flow, Buckinghamshire) and counted in a scintillation counter.

Data set [3] has as its system guinea-pig isolated trachea. Briefly: Superfusion of guinea-pig tracheal rings, contraction to electrical field stimulation. The note with it: for inhibition of contractile responses, duration of action: electrical-induced contraction of guinea-pig isolated trachea; for OT50 (onset time: time to reach 50% of the maximum inhibition of the contractile response) / RT50 (recovery time: time for 50% reversal of the maximum inhibition after terminating exposure): superfused guinea-pig trachea, electrical field stimulation, 10 μM; for OT50 (onset time: time to reach 50% of the maximum inhibition of the contractile response): mean and s.e. mean of three observations; for RT50 (recovery time: time for 50% reversal of the maximum inhibition after terminating exposure): washout. How it is done: Superfusion of guinea-pig tracheal rings was performed according to a previously described method (Coleman et al. Pulmonary Pharmacology 9 107-117 (1996)). Briefly, guinea-pig tracheal preparations were cut into rings and then opened by sectioning the ring opposite the smooth muscle and suspended between two platinum electrodes under 1 g tension. The tissues were superfused at a rate of from 1 to 3.25 ml/min with Krebs-Henseleit solution at 37° C. containing the cyclooxygenase inhibitor, indomethacin (5 μM) and bubbled with 95% O2 and 5% CO2. Tracheal preparations were allowed to equilibrate for 40 minutes before commencement of electrical stimulation, delivered as a 10 s train of square wave pulses at 3 Hz, 0.1 ms duration and 20V (approx 400 mamps) generated every 100 sec by means of physiological square wave-stimulator. The compounds of the present invention were superfused at a rate of 0.2 to 0.3 ml/min ad contractile responses to electrical field stimulation were recorded on a Macintosh computer using MacLab sor vare. The drug was prepared in DMSO and diluted in Krebs-Henseleit solution which yielded a final superfusion concentration of 0.05 to 0.1% DMSO.
The duration of action was determined and expressed as onset time (OT50) and recovery time (RT50).

Data set [4] relates to recruitment of eosinophils to the lungs. Briefly: Antigen induced eosinophilia in the ovalbumin sensitised guinea-pig. In kind it is in vivo. The note with it: 10 mg/kg orally 1 hour prior to antigen challenge, ovalbumin sensitised guinea-pigs.
Another data set addresses T1, PDE3 (human platelet) (Homo sapiens, UniProt Q14432).
T1 construct: (human platelet); from tissue; host or cells: human platelets
Briefly: PDE3 inhibition. In kind it is biochemical.

For data set [5], the system named is histamine induced bronchospasm. Briefly: Histamine induced bronchospasm, inhaled dry powder, guinea-pig. In kind it is in vivo. The procedure:
1. The above compound was tested in a model of histamine induced bronchospasm. Conscious guinea-pigs were exposed to dry powder (micronised) of the compound. The drug was blended with lactose so that the final concentration was 0.25, 2.5 and 25%. At various times after exposure to drug the animals were anaesthetised and challenged with varying doses of histamine. Total airway resistance and mean arterial blood pressure were recorded.

Data set [6] has as its system LPS induced TNF-α release from human monocytes. Briefly: LPS induced TNF-α release from human monocytes. In kind it is cell-based. The note with it: Monocyte. How it is done: 6,7-Dihydro-2-(2,6-diisopropylphenoxy)-9,10-dimethoxy-4H-pyrimido-[6,1-a]isoquinolin-4-one (compound of Example 2) was tested for effects on LPS induced TNF-α release from human monocytes.
In a further data set the test system is PDE4 (human neutrophil). Briefly: PDE4 inhibition. In kind it is biochemical.
Data set [7] deals with mean arterial blood pressure. Briefly: Intravenous administration to urethane anaesthetised guinea-pigs, mean arterial blood pressure. In kind it is in vivo, guinea-pig. As to conditions: 0.1 to 300 μg/kg. The procedure:
2. […] The compound was dissolved in DMSO then diluted with saline (there was evidence that the compound had come out of solution).

T1 sequence (Q14432 whole entry): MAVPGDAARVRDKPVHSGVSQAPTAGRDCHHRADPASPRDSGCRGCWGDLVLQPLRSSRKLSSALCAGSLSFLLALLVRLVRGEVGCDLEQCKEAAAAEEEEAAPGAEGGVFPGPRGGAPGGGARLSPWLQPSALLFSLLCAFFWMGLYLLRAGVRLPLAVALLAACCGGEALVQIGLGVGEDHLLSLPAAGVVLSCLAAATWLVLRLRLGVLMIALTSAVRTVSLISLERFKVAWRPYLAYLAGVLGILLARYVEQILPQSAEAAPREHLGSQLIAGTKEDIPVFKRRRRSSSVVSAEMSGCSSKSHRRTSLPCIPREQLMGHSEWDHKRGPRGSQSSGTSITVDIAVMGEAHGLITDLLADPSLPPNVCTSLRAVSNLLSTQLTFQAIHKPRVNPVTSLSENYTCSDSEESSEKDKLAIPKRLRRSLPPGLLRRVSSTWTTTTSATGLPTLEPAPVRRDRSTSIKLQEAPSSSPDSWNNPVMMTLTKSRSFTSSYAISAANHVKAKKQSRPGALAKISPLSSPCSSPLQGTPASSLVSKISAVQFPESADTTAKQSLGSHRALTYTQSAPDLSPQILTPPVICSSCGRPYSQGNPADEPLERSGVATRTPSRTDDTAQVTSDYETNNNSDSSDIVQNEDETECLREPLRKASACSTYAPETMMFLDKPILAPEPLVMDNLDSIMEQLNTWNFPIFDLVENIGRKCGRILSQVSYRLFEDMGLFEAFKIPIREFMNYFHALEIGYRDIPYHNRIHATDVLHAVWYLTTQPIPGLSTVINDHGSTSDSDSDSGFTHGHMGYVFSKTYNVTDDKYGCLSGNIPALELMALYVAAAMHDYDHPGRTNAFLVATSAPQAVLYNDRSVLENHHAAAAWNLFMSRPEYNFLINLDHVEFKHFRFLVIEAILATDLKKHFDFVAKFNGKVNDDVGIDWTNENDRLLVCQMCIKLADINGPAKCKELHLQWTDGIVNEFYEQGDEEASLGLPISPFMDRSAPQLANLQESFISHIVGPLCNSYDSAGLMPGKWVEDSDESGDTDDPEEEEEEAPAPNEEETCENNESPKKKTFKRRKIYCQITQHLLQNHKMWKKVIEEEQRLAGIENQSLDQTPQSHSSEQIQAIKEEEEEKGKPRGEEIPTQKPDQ

`COc1cc2c(cc1OC)-c1cc(Oc3c(Cl)cccc3Cl)nc(=O)n1CC2` [Example 8, 2-(2,6-Dichlorophenoxy)-6,7-dihydro-9,10-dimethoxy-4H-pyrimido-[6,1-a]isoquinolin-4-one]: in data set [1], the “inhibition of the contractile response to electrical field stimulation” value (“inhibition … to electrical field stimulation” for short) is recorded as “complete inhibition”. In addition, the IC50 in data set [2] was found to be 8220 nM.
Consider `COc1cc2c(cc1OC)-c1cc(Oc3c(C)cccc3C)nc(=O)n1CC2` [Example 1, 6,7-Dihydro-2-(2,6-dimethylphenoxy)-9,10-dimethoxy-4H-pyrimido-[6,1-a]isoquinolin-4-one], for which, in [1], the “inhibition … to electrical field stimulation” value is “complete inhibition”. The IC50 in [2] came to 5130 nM.
Turning to `CCc1ccccc1Oc1cc2n(c(=O)n1)CCc1cc(OC)c(OC)cc1-2` [Example 12, 9,10-Dimethoxy-2-(2-ethylphenoxy)-6,7-dihydro-4H-pyrimido[6,1-a]isoquinolin-4-one], in [3], the “inhibition of contractile responses, duration of action” value (“inhibition of contractile responses” for short) is “inhibit the contractile responses with a long duration of action”; the “OT50 (onset time: time to reach 50% of the maximum inhibition of the contractile response)” value amounted to 9.7 ± 0.6 min; the “RT50 (recovery time: time for 50% reversal of the maximum inhibition after terminating exposure)” value is listed as 263 min.
Consider `COc1cc2c(cc1OC)-c1cc(Oc3c(C(C)C)cccc3C(C)C)nc(=O)n1CC2` [Example 2, 6,7-Dihydro-2-(2,6-diisopropylphenoxy)-9,10-dimethoxy-4H-pyrimido-[6,1-a]isoquinolin-4-one], for which the “recruitment of eosinophils to the lungs following antigen challenge” value in [4] was “significantly inhibited”. The “inhibition … to electrical field stimulation” value in data set [1] is recorded as “complete inhibition”. Also, the IC50 at PDE3 (human platelet) is 107 nM; in data set [6] (n = 6), 250 nM; in [2], 2900 nM; in the data set on PDE4 (human neutrophil), 1200 nM. The “protection against histamine induced bronchospasm (total airway resistance)” value in data set [5] (conscious guinea-pigs exposed to dry powder (25% in lactose)) is “significant protection against histamine induced bronchospasm”. Also, the “effect on mean arterial blood pressure” value is “without changing mean arterial blood pressure” in [5] (guinea-pigs, inhaled dry powder (25%)) and “dose dependant reduction in mean arterial blood pressure” in data set [7]. Besides, the “inhibition of contractile responses” value in [3] is given as “inhibit the contractile responses with a long duration of action”. Moreover, the “OT50 (onset time: time to reach 50% of the maximum inhibition of the contractile response)” value in [3] was found to be 24.9 ± 5.0 min. In addition, the “RT50 (recovery time: time for 50% reversal of the maximum inhibition after terminating exposure)” value in data set [3] was over 240 min.
As to `CCc1cccc(CC)c1Oc1cc2n(c(=O)n1)CCc1cc(OC)c(OC)cc1-2` [Example 3, 2-(2,6-diethylphenoxy)-6,7-dihydro-9,10-dimethoxy-4H-pyrimido-[6,1-a]isoquinolin-4-one], in [3], the “inhibition of contractile responses” value was “inhibit the contractile responses with a long duration of action”; the “OT50 (onset time: time to reach 50% of the maximum inhibition of the contractile response)” value stood at 17 ± 1 min; the “RT50 (recovery time: time for 50% reversal of the maximum inhibition after terminating exposure)” value was over 240 min.
`COc1cc2c(cc1OC)-c1cc(Oc3ccccc3CC(C)C)nc(=O)n1CC2` [Example 10, 9,10-Dimethoxy-2-(2-isobutylphenoxy)-6,7-dihydro-4H-pyrimido[6,1-a]isoquinolin-4-one]: in data set [3], the “inhibition of contractile responses” value is “inhibit the contractile responses with a long duration of action”; the “OT50 (onset time: time to reach 50% of the maximum inhibition of the contractile response)” value was 17.5 ± 1.25 min; the “RT50 (recovery time: time for 50% reversal of the maximum inhibition after terminating exposure)” value is reported as over 300 min.
Consider `COc1cc2c(cc1OC)-c1cc(=Nc3c(C)cc(C)cc3C)n(C)c(=O)n1CC2` [Trequinsin, 9,10-dimethoxy-3-methyl-2-mesitylimino-2,3,6,7-tetrahydro-4H-pyrimido[6,1-a]isoquinolin-4-one, reference compound], for which, in data set [3], the “OT50 (onset time: time to reach 50% of the maximum inhibition of the contractile response)” value is listed as 14 min and the “RT50 (recovery time: time for 50% reversal of the maximum inhibition after terminating exposure)” value came to 146 min.
In data set [6] (unit printed in the cell beside the value), `CN/C(=N\c1ccc(C2=NNC(=O)CC2C)cc1)NC#N` (centres unmarked) [Siguazodan] yielded an IC50 of over 100000 nM.
Regarding `COc1cc2c(cc1OC)-c1cc(Oc3ccccc3C3CCCC3)nc(=O)n1CC2` [Example 13, 2-(2-Cyclopentylphenoxy)-9,10-dimethoxy-6.7-dihydro-4H-pyrimido[6,1-a]-isoquinolin-4-one], in data set [3], the “inhibition of contractile responses” value is given as “inhibit the contractile responses with a long duration of action”; the “OT50 (onset time: time to reach 50% of the maximum inhibition of the contractile response)” value turned out to be 18.6 ± 1.5 min; the “RT50 (recovery time: time for 50% reversal of the maximum inhibition after terminating exposure)” value is over 300 min.
The compound `COc1ccc([C@H](Cc2ccncc2)c2ccccc2)cc1OC1CCCC1` [CDP 840] had an IC50 in [6] (n = 6) of 92 nM.
As for `COc1cc2c(cc1OC)-c1cc(Oc3ccccc3C(C)(C)C)nc(=O)n1CC2` [Example 11, 2-(2-tert-butylphenoxy)-9,10-dimethoxy-6,7-dihydro-4H-pyrimido[6,1-a]isoquinolin-4-one], in [3], the “inhibition of contractile responses” value is “inhibit the contractile responses with a long duration of action”; the “OT50 (onset time: time to reach 50% of the maximum inhibition of the contractile response)” value amounted to 14.7 ± 1.33 min; the “RT50 (recovery time: time for 50% reversal of the maximum inhibition after terminating exposure)” value is on record as over 300 min.
